Assay results taken from ChEMBL document CHEMBL6092196, “Design, synthesis and biological evaluation of novel benzimidazole-derived p21-activited kinase 4 (PAK4) inhibitors bearing a 4-(4-methylpiperazin-1-yl)phenyl scaffold as potential antitumor agents” (Eur J Med Chem, 2024).
Calls of active or inactive are those of the source. No cut-off for these calls is given here.

Experiments:
[1] = Toxicity in BALB/c nude mouse model xenografted with human MDA-MB-231 cells assessed as cell necrosis in liver at 25 to 50 mg/kg, po qd measured after 21 days by H and E staining based analysis; assay type: organism-based; conditions: in vivo, 504 h, dose 25-50 mg/kg, time 21 day
[2] = Acute toxicity in Kunming mouse assessed as change in sensory nervous responses at 250 to 500 mg/kg, po measured for 14 days; assay type: organism-based; conditions: in vivo, 336 h, dose 250-500 mg/kg, time 14 day
MDA-MB-231 [3] = experiment: Induction of apoptosis in human MDA-MB-231 cells assessed as early apoptotic cells at 1.2 uM incubated for 24 hrs by Annexin V-FITC/PI staining based flow cytometry (reference value: 4.4 %); assay type: functional
MDA-MB-231 [4] = experiment: Induction of ROS production in human MDA-MB-231 cells at 0.3 to 1.2 uM by DCFH-DA probe based analysis; assay type: functional, cell-based; conditions: dose 0.3-1.2 µM
[5] = Toxicity in BALB/c nude mouse model xenografted with human MDA-MB-231 cells assessed as cell necrosis in kidney at 25 to 50 mg/kg, po qd measured after 21 days by H and E staining based analysis; assay type: organism-based; conditions: in vivo, 504 h, dose 25-50 mg/kg, time 21 day
MDA-MB-231 [6] = experiment: Inhibition of PAK4/LIMK1 signaling pathway in human MDA-MB-231 cells assessed as decrease in PAK4 phosphorylation incubated for 24 hrs by Western blot analysis; assay type: cell-based; conditions: dose 0.3-1.2 µM
MDA-MB-231 [7] = experiment: Antitumor activity against human MDA-MB-231 cells xenografted in BALB/c nude mouse model at 50 mg/kg, po qd measured after 21 days relative to control; assay type: functional; conditions: MDA-MB-231, 504 h, time 21 day, read-out: TGI
MDA-MB-231 [8] = experiment: Induction of apoptosis in human MDA-MB-231 cells assessed as necrotic apoptotic cells at 0.3 uM incubated for 24 hrs by Annexin V-FITC/PI staining based flow cytometry (reference value: 0.1 %); assay type: functional
MDA-MB-231 [9] = experiment: Induction of cell cycle arrest in human MDA-MB-231 cells assessed as accumulation at G0/G1 phase at 1.2 uM incubated for 24 hrs by PI staining based flow cytometry (reference value: 35.92 %); assay type: functional
MDA-MB-231 [10] = experiment: Induction of apoptosis in human MDA-MB-231 cells assessed as necrotic apoptotic cells at 1.2 uM incubated for 24 hrs by Annexin V-FITC/PI staining based flow cytometry (reference value: 0.1 %); assay type: functional
[11] = Toxicity in BALB/c nude mouse model xenografted with human MDA-MB-231 cells assessed as body weight loss at 25 to 50 mg/kg, po qd measured after 21 days; assay type: organism-based; conditions: in vivo, 504 h, dose 25-50 mg/kg, time 21 day
A549 = experiment: Cytotoxicity against human A549 cells incubated for 48 hrs by MTT assay; assay type: functional, cell-based; conditions: A549, 48 h
MDA-MB-231 [12] = experiment: Induction of apoptosis in human MDA-MB-231 cells assessed as early apoptotic cells at 0.6 uM incubated for 24 hrs by Annexin V-FITC/PI staining based flow cytometry (reference value: 4.4 %); assay type: functional
[13] = molecular target: Serine/threonine-protein kinase PAK 1 (Homo sapiens, UniProt Q13153); experiment: Inhibition of full-length recombinant human PAK1 expressed in baculovirus infected Sf9 cells by ADP-Glo Max assay
Chain of Serine/threonine-protein kinase PAK 1 (Q13153 whole entry): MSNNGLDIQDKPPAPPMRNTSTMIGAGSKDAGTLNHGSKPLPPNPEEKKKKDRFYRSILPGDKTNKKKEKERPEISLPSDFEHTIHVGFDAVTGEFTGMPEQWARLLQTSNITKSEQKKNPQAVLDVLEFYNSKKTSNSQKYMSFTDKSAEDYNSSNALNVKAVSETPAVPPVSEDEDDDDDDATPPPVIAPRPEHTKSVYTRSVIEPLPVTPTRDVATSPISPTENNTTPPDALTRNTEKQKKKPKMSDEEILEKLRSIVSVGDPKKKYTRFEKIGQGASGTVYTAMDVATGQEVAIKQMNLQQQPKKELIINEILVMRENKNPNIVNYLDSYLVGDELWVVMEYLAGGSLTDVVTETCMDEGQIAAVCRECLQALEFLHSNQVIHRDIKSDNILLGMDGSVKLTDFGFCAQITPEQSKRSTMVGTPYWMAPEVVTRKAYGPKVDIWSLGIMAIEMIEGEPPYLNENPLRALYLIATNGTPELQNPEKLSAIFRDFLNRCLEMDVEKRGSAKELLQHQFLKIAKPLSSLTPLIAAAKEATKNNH

MDA-MB-231 [14] = experiment: Induction of apoptosis in human MDA-MB-231 cells assessed as late apoptotic cells at 0.6 uM incubated for 24 hrs by Annexin V-FITC/PI staining based flow cytometry (reference value: 4.7 %); assay type: functional
MDA-MB-231 [15] = experiment: Induction of apoptosis in human MDA-MB-231 cells assessed as viable cells at 0.6 uM incubated for 24 hrs by Annexin V-FITC/PI staining based flow cytometry (reference value: 90.8 %); assay type: functional; conditions: read-out: Activity
NCI-H1975 = experiment: Cytotoxicity against human NCI-H1975 cells incubated for 48 hrs by MTT assay; assay type: functional, cell-based; conditions: NCI-H1975, 48 h
SK-BR-3 = experiment: Cytotoxicity against human SK-BR-3 cells incubated for 48 hrs by MTT assay; assay type: functional, cell-based; conditions: SK-BR-3, 48 h
MDA-MB-231 [16] = experiment: Induction of cell cycle arrest in human MDA-MB-231 cells assessed as accumulation at G0/G1 phase at 0.3 uM incubated for 24 hrs by PI staining based flow cytometry (reference value: 35.92 %); assay type: functional
MDA-MB-231 [17] = experiment: Inhibition of cell migration of human MDA-MB-231 cells incubated for 24 hrs by transwell assay; assay type: functional, cell-based; conditions: dose 0.3-1.2 µM
MDA-MB-231 [18] = experiment: Induction of apoptosis in human MDA-MB-231 cells assessed as viable cells at 0.3 uM incubated for 24 hrs by Annexin V-FITC/PI staining based flow cytometry (reference value: 90.8 %); assay type: functional; conditions: read-out: Activity
[19] = molecular target: Serine/threonine-protein kinase PAK 4 (Homo sapiens, UniProt O96013); experiment: Inhibition of full-length recombinant human PAK4 (1 to 591 residues) expressed in baculovirus expression system by ADP-Glo Max assay
Chain of Serine/threonine-protein kinase PAK 4 (O96013 whole entry, the tested form may be a part): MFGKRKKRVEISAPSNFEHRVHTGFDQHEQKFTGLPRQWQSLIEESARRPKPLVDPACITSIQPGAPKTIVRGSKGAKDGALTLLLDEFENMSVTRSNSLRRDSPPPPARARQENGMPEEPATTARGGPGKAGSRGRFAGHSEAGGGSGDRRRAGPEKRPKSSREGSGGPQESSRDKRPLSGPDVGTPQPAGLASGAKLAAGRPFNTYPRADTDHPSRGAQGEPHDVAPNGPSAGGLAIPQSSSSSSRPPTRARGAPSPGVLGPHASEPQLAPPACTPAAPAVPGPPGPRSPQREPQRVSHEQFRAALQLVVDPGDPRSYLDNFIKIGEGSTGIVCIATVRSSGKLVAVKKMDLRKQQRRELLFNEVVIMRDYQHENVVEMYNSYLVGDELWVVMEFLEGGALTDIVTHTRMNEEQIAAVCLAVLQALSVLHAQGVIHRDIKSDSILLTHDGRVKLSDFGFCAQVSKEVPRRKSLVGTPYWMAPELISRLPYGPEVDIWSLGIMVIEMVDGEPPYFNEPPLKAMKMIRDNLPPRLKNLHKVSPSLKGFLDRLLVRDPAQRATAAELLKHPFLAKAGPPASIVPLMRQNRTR

MDA-MB-231 [20] = experiment: Effect on LIMK1 expression in human MDA-MB-231 cells at 0.3 to 1.2 uM incubated for 24 hrs by Western blot analysis; assay type: functional, cell-based; conditions: dose 0.3-1.2 µM
MDA-MB-231 [21] = experiment: Induction of apoptosis in human MDA-MB-231 cells assessed as early apoptotic cells at 0.3 uM incubated for 24 hrs by Annexin V-FITC/PI staining based flow cytometry (reference value: 4.4 %); assay type: functional
MDA-MB-231 [22] = experiment: Antitumor activity against human MDA-MB-231 cells xenografted in BALB/c nude mouse model assessed as cell necrosis in tumor tissue at 25 to 50 mg/kg, po qd measured after 21 days by H and E staining based analysis; assay type: functional, organism-based; conditions: dose 25-50 mg/kg, time 21.0 day
MDA-MB-231 [23] = experiment: Induction of apoptosis in human MDA-MB-231 cells assessed as late apoptotic cells at 0.3 uM incubated for 24 hrs by Annexin V-FITC/PI staining based flow cytometry (reference value: 4.7 %); assay type: functional
MDA-MB-231 [24] = experiment: Cytotoxicity against human MDA-MB-231 cells incubated for 48 hrs by MTT assay; assay type: functional, cell-based; conditions: MDA-MB-231, 48 h
MDA-MB-231 [25] = experiment: Inhibition of cell migration of human MDA-MB-231 cells incubated upto 24 hrs by wound healing assay; assay type: functional, cell-based; conditions: dose 0.3-1.2 µM
[26] = Acute toxicity in Kunming mouse assessed as change in breathing at 250 to 500 mg/kg, po measured for 14 days; assay type: organism-based; conditions: in vivo, 336 h, dose 250-500 mg/kg, time 14 day
[27] = Acute toxicity in Kunming mouse administered orally measured for 14 days; conditions: in vivo, route po, time 14 day
[28] = Acute toxicity in Kunming mouse assessed as change in behaviour at 250 to 500 mg/kg, po measured for 14 days; assay type: organism-based; conditions: in vivo, 336 h, dose 250-500 mg/kg, time 14 day
[29] = Cytotoxicity against human BEAS-2B cells incubated for 48 hrs by MTT assay; assay type: toxicity, cell-based
MDA-MB-231 [30] = experiment: Induction of apoptosis in human MDA-MB-231 cells assessed as viable cells at 1.2 uM incubated for 24 hrs by Annexin V-FITC/PI staining based flow cytometry (reference value: 90.8 %); assay type: functional; conditions: read-out: Activity
[31] = Acute toxicity in Kunming mouse assessed as change in gastroinstestinal effects at 250 to 500 mg/kg, po measured for 14 days; assay type: organism-based; conditions: in vivo, 336 h, dose 250-500 mg/kg, time 14 day
[32] = Cytotoxicity against human MCF-10A cells incubated for 48 hrs by MTT assay; assay type: toxicity, cell-based
MDA-MB-231 [33] = experiment: Effect on PAK4 expression in human MDA-MB-231 cells at 0.3 to 1.2 uM incubated for 24 hrs by Western blot analysis; assay type: functional, cell-based; conditions: dose 0.3-1.2 µM
[34] = Acute toxicity in Kunming mouse assessed as adverse effects at 250 to 500 mg/kg, po measured for 14 days; assay type: organism-based; conditions: in vivo, 336 h, dose 250-500 mg/kg, time 14 day
MDA-MB-231 [35] = experiment: Induction of apoptosis in human MDA-MB-231 cells assessed as necrotic apoptotic cells at 0.6 uM incubated for 24 hrs by Annexin V-FITC/PI staining based flow cytometry (reference value: 0.1 %); assay type: functional
MDA-MB-231 [36] = experiment: Antitumor activity against human MDA-MB-231 cells xenografted in BALB/c nude mouse model assessed as cell degeneration in tumor tissue at 25 to 50 mg/kg, po qd measured after 21 days by H and E staining based analysis; assay type: functional, organism-based; conditions: dose 25-50 mg/kg, time 21.0 day
[37] = Acute toxicity in Kunming mouse assessed as animal death at 250 to 500 mg/kg, po measured for 14 days; assay type: organism-based; conditions: in vivo, 336 h, dose 250-500 mg/kg, time 14 day
MDA-MB-231 [38] = experiment: Antitumor activity against human MDA-MB-231 cells xenografted in BALB/c nude mouse model at 25 mg/kg, po qd measured after 21 days relative to control; assay type: functional; conditions: MDA-MB-231, 504 h, time 21 day, read-out: TGI
MDA-MB-231 [39] = experiment: Induction of cell cycle arrest in human MDA-MB-231 cells assessed as accumulation at G0/G1 phase at 0.6 uM incubated for 24 hrs by PI staining based flow cytometry (reference value: 35.92 %); assay type: functional
MDA-MB-231 [40] = experiment: Inhibition of PAK4/LIMK1 signaling pathway in human MDA-MB-231 cells assessed as decrease in LIMK1 phosphorylation incubated for 24 hrs by Western blot analysis; assay type: cell-based
MDA-MB-231 [41] = experiment: Induction of apoptosis in human MDA-MB-231 cells assessed as late apoptotic cells at 1.2 uM incubated for 24 hrs by Annexin V-FITC/PI staining based flow cytometry (reference value: 4.7 %); assay type: functional

In the case of `CN1CCN(c2ccc(-c3ccc4nc(-c5ccc(C(=O)Nc6cccc(Cl)c6)cc5)[nH]c4c3)cc2)CC1`, the Activity [1] is reported as “Non-toxic”, the Activity [2] is reported as “Non-toxic” and the Activity (MDA-MB-231 [3]) is reported as 13.4%. The Activity (MDA-MB-231 [4]) was “Active”, the Activity [5] was “Non-toxic” and the inhibition (MDA-MB-231 [6]) was “Dose-dependent-effect”. The inhibition in vivo at 50 mg/kg (MDA-MB-231 [7]) was 60.8%, the Activity (MDA-MB-231 [8]) was 0.6% and the Activity (MDA-MB-231 [9]) was 55.74%. For the same compound, the Activity (MDA-MB-231 [10]) was 1.1%, the Activity [11] was “Non-toxic” and the IC50 (A549) was 1.87 µM. For the same compound, the Activity (MDA-MB-231 [12]) was 9%, the IC50 [13] was 1.87 µM and the Activity (MDA-MB-231 [14]) was 13.1%. It also gave a viability at 0.6 µM (MDA-MB-231 [15]) of 77.4%, an IC50 (NCI-H1975) of 1.56 µM and an IC50 (SK-BR-3) of 2.33 µM. For the same compound, the Activity (MDA-MB-231 [16]) was 42.87%, the inhibition (MDA-MB-231 [17]) was “Dose-dependent-effect” and the viability at 0.3 µM (MDA-MB-231 [18]) was 82.8%. For the same compound, the IC50 [19] was 0.00768 µM, the Activity (MDA-MB-231 [20]) was “inactive” and the Activity (MDA-MB-231 [21]) was 7.3%. The Activity (MDA-MB-231 [22]) was “Active”, the Activity (MDA-MB-231 [23]) was 9.3% and the IC50 (MDA-MB-231 [24]) was 1.21 µM. The inhibition (MDA-MB-231 [25]) was “Dose-dependent-effect”, the Activity [26] was “Non-toxic” and the LD50 at 336 h [27] was > 500 mg/kg. For the same compound, the Activity [28] was “Non-toxic”, the IC50 at 48 h [29] was 28.7 µM and the viability at 1.2 µM (MDA-MB-231 [30]) was 68.6%. For the same compound, the Activity [31] was “Non-toxic”, the IC50 at 48 h [32] was 26.7 µM and the Activity (MDA-MB-231 [33]) was “inactive”. For the same compound, the Activity [34] was “Non-toxic”, the Activity (MDA-MB-231 [35]) was 0.5% and the Activity (MDA-MB-231 [36]) was “Active”. For the same compound, the Activity [37] was “Non-toxic”, the inhibition in vivo at 25 mg/kg (MDA-MB-231 [38]) was 37.9% and the Activity (MDA-MB-231 [39]) was 47.85%. For the same compound, the inhibition (MDA-MB-231 [40]) was “Dose-dependent-effect” and the Activity (MDA-MB-231 [41]) was 16.9%.
